According to ChEMBL document CHEMBL1208710, “NF-kappaB inducing kinase (NIK) inhibitors: identification of new scaffolds using virtual screening” (Bioorg Med Chem Lett, 2010):
pIC50: −log10 of the molar value.

Assays:
[1] = biological target: T1, Mitogen-activated protein kinase kinase kinase 14 (Homo sapiens, UniProt Q99558); experiment: Inhibition of human recombinant GST-fused NIK expressed in Sf9 cells at 50 uM after 60 mins by radiometric protein kinase assay
Target sequence in this assay (Q99558 whole entry, looked up, the tested form may be a part): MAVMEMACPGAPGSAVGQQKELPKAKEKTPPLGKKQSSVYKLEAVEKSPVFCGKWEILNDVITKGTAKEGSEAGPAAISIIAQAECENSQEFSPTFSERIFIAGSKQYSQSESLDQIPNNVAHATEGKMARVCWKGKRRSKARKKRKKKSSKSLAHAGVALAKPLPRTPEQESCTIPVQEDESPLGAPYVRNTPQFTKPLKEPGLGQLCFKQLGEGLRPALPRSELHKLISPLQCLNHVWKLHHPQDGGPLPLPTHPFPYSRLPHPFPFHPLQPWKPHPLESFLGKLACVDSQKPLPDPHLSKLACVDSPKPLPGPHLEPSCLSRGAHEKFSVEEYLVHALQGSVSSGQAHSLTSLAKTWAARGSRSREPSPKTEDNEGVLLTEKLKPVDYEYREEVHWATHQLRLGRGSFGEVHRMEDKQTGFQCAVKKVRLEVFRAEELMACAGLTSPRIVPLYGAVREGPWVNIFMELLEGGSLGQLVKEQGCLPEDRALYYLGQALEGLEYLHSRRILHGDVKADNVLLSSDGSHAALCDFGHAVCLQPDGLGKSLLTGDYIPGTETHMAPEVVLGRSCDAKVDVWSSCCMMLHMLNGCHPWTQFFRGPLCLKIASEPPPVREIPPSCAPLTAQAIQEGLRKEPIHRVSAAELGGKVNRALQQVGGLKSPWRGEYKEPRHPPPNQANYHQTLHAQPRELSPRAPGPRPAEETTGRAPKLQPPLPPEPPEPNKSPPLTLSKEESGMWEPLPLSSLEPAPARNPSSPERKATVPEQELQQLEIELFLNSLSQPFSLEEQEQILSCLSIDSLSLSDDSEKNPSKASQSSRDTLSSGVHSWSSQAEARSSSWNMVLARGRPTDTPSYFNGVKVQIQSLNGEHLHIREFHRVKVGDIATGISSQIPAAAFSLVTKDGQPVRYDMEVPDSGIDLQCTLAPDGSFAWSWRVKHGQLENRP

[2] = biological target: T1, Mitogen-activated protein kinase kinase kinase 14; experiment: Inhibition of human recombinant GST-fused NIK expressed in Sf9 cells after 60 mins by radiometric protein kinase assay
Target sequence in this assay (Q99558 whole entry, the tested form may be a part): as the sequence (Q99558 whole entry, looked up, the tested form may be a part) above

| SMILES | inhibition [1] | pIC50 [2] |
| --- | --- | --- |
| O=C(Cn1c(=O)[nH]c(=O)c2ccccc21)NCc1ccccn1 | < 15% | – |
| CN(C)c1ccc(CNC(=O)Cn2c(=O)[nH]c(=O)c3ccccc32)cc1 | < 15% | – |
| O=C1Cc2ccccc2CN1 | – | < 4.00 |
| O=C1Cc2ccccc2C(=O)N1 | 60% | 4.29 |
| CC1=CC(=O)c2c(O)cccc2C1=O [PLUMBAGIN] | 60% | < 4.00 |
| CCOC(=O)N1CCC(NC(=O)Cn2c(=O)[nH]c(=O)c3ccccc32)CC1 | < 15% | – |
| CCO/C=C1/C(=O)NC(=O)c2ccccc21 | 44% | < 4.30 |
| O=c1[nH]c(=O)c2c(Cl)cc(Cl)cc2[nH]1 | – | < 4.00 |
| O=C1NC(=O)c2ccccc2/C1=C\c1cccs1 | 25% | < 4.00 |
| O=C1CC2CC(=O)NC(=O)C2C(=O)N1 (stereo unspecified) | 53% | 4.05 |
| CC(NC(=O)Cn1c(=O)[nH]c(=O)c2ccccc21)c1cccs1 (stereo unspecified) | < 15% | – |
